Assay results from patent US20170348231A1, “COMPOSITION AND METHOD FOR BUCCAL ADMINISTRATION OF GnRH AGONISTS” (NHTherapeutics INC, priority 2016, published 2017).

How the values were obtained:
[1] = intranasal; cited from earlier work
[2] = system: patient suffering from hypogonadotropic hypogonadism; conditions: intranasal, daily administration of a low dose; cited from earlier work
[3] = system: normally menstruating females; conditions: 25 μg LH-RH each, double stimulation on three consecutive days, 12 females; cited from earlier work
male beagle dogs = experiment: Oromucosal (buccal) spray in male beagle dogs, testosterone response; format: in vivo; conditions: 0.5 mg oromucosal spray
Experimental: The GnRH analogue leuprorelin acetate (leuprolide acetate) which is available as an injectable, was reformulated as described in Example 3. This spray was administered to male beagle dogs at a dose of 0.5 mg suspended in 140 μl and dispensed in a single spray to the inner cheek of male beagle dogs (studies 1 and 2). In addition, formulation 2 was sprayed to the mucosae at the back of the throat in a separate study to determine if this would alter the absorption characteristics (study 3). The two formulations were administered with a one week washout period. Drug was dispensed in a single spray with a volume of 140 μl (studies 1 and 2) or three consecutive sprays (study 3). The aim of the study was to determine if leuprolide could be delivered as an oralmucosal spray and to determine the minimum exposure required to increase levels of testosterone.
The blood levels for leuprolide were monitored 15 minutes before the start of the study and at time “0” (immediately after drug administration), then at 15, 30 minutes and at 1, 2, 3 and 5 hours (postdosing; studies 1 and 2). In addition, for study 3, two additional time points were included at 5 and 10 min post dosing. […]
The study was conducted by the University Health Network in Toronto and specifically at the Toronto Western Hospital. Serum samples were analysed at Inventiv Health in Quebec City.

Compound: CCNC(=O)[C@@H]1CCCN1C(=O)[C@H](CCCNC(=N)N)NC(=O)[C@H](CC(C)C)NC(=O)[C@@H](COC(C)(C)C)NC(=O)[C@H](Cc1ccc(O)cc1)NC(=O)[C@H](CO)NC(=O)[C@H](Cc1c[nH]c2ccccc12)NC(=O)[C@H](Cc1cnc[nH]1)NC(=O)[C@@H]1CCC(=O)N1 [buserelin]
- bioavailability [1]: 3%
- testosterone [2]: chronic and sustained increase in testosterone

Compound: luteinizing hormone-releasing hormone (QHWSYGLRPG; Gonadoliberin-1; UniProt P01148 24-33, looked up) [LH-RH, Native or physiological GnRH, hormone secreted by the hypothalamus]
- serum LH levels [3]: Increases in serum LH levels were found after each of the two stimulations

Compound: CCNC(=O)[C@@H]1CCCN1C(=O)[C@H](CCCNC(=N)N)NC(=O)[C@H](CC(C)C)NC(=O)[C@@H](CC(C)C)NC(=O)[C@H](Cc1ccc(O)cc1)NC(=O)[C@H](CO)NC(=O)[C@H](Cc1c[nH]c2ccccc12)NC(=O)[C@H](Cc1c[nH]cn1)NC(=O)[C@@H]1CCC(=O)N1 [Leuprolide acetate, leuprolide acetate]
- exposure levels at which the testosterone increase occurred (male beagle dogs): at least 30 pg/ml
- peak testosterone increase compared to baseline (male beagle dogs; FIGS. 1a, b): ~200%
